# Experimental data published in patent US8980874B2, “Method and composition for treating diabetic ketoacidosis” (Midwestern University, priority 2009, dated 2015).
# Legend:
# Format in all cases: in vivo
# rat model of DKA [1] = assay: Arterial blood gases, electrolytes, lactate and hematocrit in diabetic ketoacidosis rats
# Excerpt: Arterial blood pH, pO2, pCO2, Na^+, K^+, lactate, and hematocrit were monitored prior to, at one hour, and at the end of treatment. Blood samples were drawn from the arterial cannula using blood gas sampling syringes (Innovative Medical Technologies, Inc. Leawood, Kans.) and analyzed using a GEM Premier 3000 unit (Instrument Laboratory, Lexington, Mass.). Blood samples were withdrawn from the femoral artery for baseline reading prior to start of treatment, after the first hour of treatment, and then at the end of the treatment (fifth hour of experiment).
# (§1) Group 4: Diabetic saline/insulin treated (D-Saline+insulin treated): Rats were injected with streptozotocin in citrate buffer (150 mg/kg ip) to induce diabetes and ketoacidosis. On day three, rats were treated with 1.5 U/kg regular insulin (Humulin® R (Regular human insulin, rDNA origin). On day four, saline and insulin treatment was carried out. Rats were infused via cannulated femoral vein saline, 0.9% NaCl at 80 mL/kg/hr and 1.5 U/kg/hr regular insulin for one hour. During the next two through four hours, rats were infused with saline, 0.9% NaCl at 40 mL/kg/hr and 1.5 U/kg/hr regular insulin (Yuen et al., 2008).
# (§2) Group 5: Diabetic BMS-182874/saline/insulin treated (D-BMS+Saline+insulin treated): Rats were injected with streptozotocin in citrate buffer (150 mg/kg ip) to induce diabetes and ketoacidosis. On day three, rats were treated with 1.5 U/kg regular insulin. On day four, rats were administered a bolus dose of selective ETA receptor antagonist, BMS-182874 (9 mg/kg), then saline and insulin treatment was carried out. Rats were infused via cannulated femoral vein saline, 0.9% NaCl at 80 mL/kg/hr and 1.5 U/kg/hr regular insulin for one hour. During the next two through four hours rats were infused with saline, 0.9% NaCl at 40 mL/kg/hr and 1.5 U/kg/hr regular insulin.
# (§3) Group 6: Diabetic BQ123/saline/insulin treated (D-BQ+saline+insulin treated): Same as above for Group 5, except BQ123 (1 mg/kg body weight) is used as a substitute for BMS-182874 (9 mg/kg).
# (§4) Data are presented as mean±SEM. The significance of differences was estimated by one-way analysis of variance (intra group comparison with respect to base line data) and two-way analysis of variance (inter group comparison with respect to corresponding time points from each groups) followed by application of the Dunnett's Multiple Comparisons and Bonferroni test respectively. A P value of less than 0.05 was considered to be significant. The statistical analysis was processed with GraphPad Prism software Version 5.00.
# rat model of DKA [2] = assay: Plasma ET-1 level (Enzyme Immunometric Assay) in diabetic ketoacidosis rats
# Experimental: In order to analyze the change in plasma ET-1 level during the treatment, blood samples were withdrawn through right femoral artery of the rats before and at the end of experiment and were collected into chilled EDTA tubes (1 mg/mL blood) containing aprotinin (500 KIU/mL of blood). The blood samples were centrifuged at 1,600×g for 15 minutes at 0° C. and plasma separated was stored at −70° C. until analyzed. ET-1 level was estimated using Assay's Design's Endothelin-1 Enzyme Immunometric Assay Kit (Nowicki et al., 2005; Brondani et al., 2007). Briefly, plasma samples and standards were added to wells coated with a monoclonal antibody specific for ET-1. The plate then was washed after 24 hours of incubation, leaving only bound ET-1 on the plate. A solution of horseradish peroxidase (HRP) labeled monoclonal antibody to ET-1 then was added, which binds to the ET-1 captured on the plate. The plate was incubated for 30 min, then washed to remove excess HRP labeled antibody. A solution of 3,3′,5,5′-tetramethylbenzidine (TMB) substrate was added, which generates a blue color when catalyzed by the HRP. Hydrochloric acid (1N) was added to stop the substrate reaction, and the resulting yellow color was read at 450 nm using DTX 800 Multimode detector. The data was analyzed with Multimode Detection Software (Beckman Coulter, Inc., Fullerton, Calif.). The measured optical density is directly proportional to the concentration of ET-1 in either standards/plasma. Blood samples from all the groups were collected before the start and at end of the treatment.
# as §1, §2, §3, §4
# rat model of DKA [3] = assay: Blood glucose in streptozotocin-induced diabetic ketoacidosis rats
# Experimental: Normotensive Sprague Dawley rats were kept on fasting for 2 hours with unlimited access to water. After 2 hours of fasting, rats were injected intraperitoneally with 150 mg/kg of streptozotocin in 0.05 mol/L citric acid, pH 4.3 to induced diabetes (Lam et al., 2005; Yuen et al., 2008), while non-diabetic control rats received an intraperitoneal injection of 0.05 mol/L citrate buffer (Lam et al., 2005; Yuen et al., 2008). Rats were allowed unlimited access to tap water and food. Each day rats were weighed and urine ketone levels were estimated by Urine Reagent Strips, 1K Parameter. Prior to streptozotocin or citrate buffer injection, baseline blood glucose levels were assessed by One Touch Ultra blood glucose strips from Lifescan, Milpitas, Calif., and baseline blood ketone levels were estimated using Cardiochek blood ketone analyzer. Blood glucose and ketone were measured again on day three and four to ensure the onset of hyperglycemia and ketoacidosis. […] Blood samples were withdrawn from the femoral […] for baseline reading prior to start of treatment, after the first hour of treatment, and then at the end of the treatment (fifth hour of experiment).
# The animals were allowed to stabilize for at least 20 minutes following surgical procedures. Body weight, blood glucose, urinary ketone, blood ketone, arterial blood gases, blood electrolytes, mean arterial pressure, pulse pressure, heart rate, brain blood perfusion, brain and lung water content were determined in the following groups
# as §1, §2, §3, §4
# rat model of DKA [4] = assay: Brain blood perfusion (Laser Doppler Flowmetry) in diabetic ketoacidosis rats; conditions: day 4, FIG. 6, antagonist given with saline+insulin, result in words
# Experimental: A burr hole was drilled into the rat skull approximately 2 millimeters (mm) to the left of midline, being careful not to disturb the brain tissue itself. Cerebrovascular perfusion was measured via a fiber optic probe (PF407) applied to the surface of the rat brain. The probe was connected to a Periflux PF2b 4000 Laser Doppler Flowmetry unit (Perimed, Stockholm, Sweden). The perfusion was determined by measuring the passage of red blood cells through the capillaries.
# as §1, §2, §3, §4
# [5] = day 4, compared to diabetic untreated rats, result in words
# [6] = saline+insulin, alone or after bolus BMS-182874 9 mg/kg or BQ123 1 mg/kg
# [7] = saline+insulin, alone or after bolus BMS-182874 9 mg/kg or BQ123 1 mg/kg, instrument floor 6.80
substance,measurement,setting,value
"Insulin: Humulin® R (Regular human insulin, rDNA origin), infused with saline","arterial blood pH, Day 4 (pre-tx)","rat model of DKA [1]; baseline, instrument could not record pH below 6.80, mean±SEM",6.81 ± 0.01
same,"arterial blood pCO2, Day 4 (pre-tx)","rat model of DKA [1]; baseline, mean±SEM",30.40 ± 2.46 mmHg
same,"arterial blood pO2, Day 4 (pre-tx)","rat model of DKA [1]; baseline, mean±SEM",145.00 ± 10.84 mmHg
same,"blood K+ level, Day 4 (pre-tx)","rat model of DKA [1]; baseline, mean±SEM",3.82 ± 0.29 mmol/L
same,"blood Na+ level, Day 4 (pre-tx)","rat model of DKA [1]; baseline, mean±SEM",135.00 ± 2.17 mmol/L
same,"blood hematocrit (Hct), Day 4 (pre-tx)","rat model of DKA [1]; baseline, mean±SEM",49.80 ± 2.27%
same,effect of treatment on arterial blood pH (acidosis),"rat model of DKA [1]; day 4, antagonist given with saline+insulin, result in words",did not produce any significant improvement in acidosis
same,effect of treatment on blood K+ levels,rat model of DKA [1]; [5],significantly reduced the change in blood K^+ levels
same,effect of treatment on blood lactate levels,rat model of DKA [1]; [5],significantly reduced the change in blood lactate levels
same,effect of treatment on hematocrit,rat model of DKA [1]; [5],significantly reduced the hematocrit
same,"arterial blood pCO2, Day 4 (1 hour of tx)",rat model of DKA [1]; [6],29.00 ± 2.30 mmHg
same,"arterial blood pCO2, Day 4 (end of tx)",rat model of DKA [1]; [6],27.60 ± 2.21 mmHg
same,"arterial blood pO2, Day 4 (1 hour of tx)",rat model of DKA [1]; [6],160.20 ± 11.36 mmHg
same,"arterial blood pO2, Day 4 (end of tx)",rat model of DKA [1]; [6],155.60 ± 11.43 mmHg
same,"blood K+ level, Day 4 (1 hour tx)",rat model of DKA [1]; [6],2.92 ± 0.16 mmol/L
same,"blood K+ level, Day 4 (end of tx)",rat model of DKA [1]; [6],2.48 ± 0.24 mmol/L
same,"blood Na+ level, Day 4 (1 hour of tx)",rat model of DKA [1]; [6],141.60 ± 1.21 mmol/L
same,"blood Na+ level, Day 4 (end of tx)",rat model of DKA [1]; [6],148.60 ± 0.51 mmol/L
same,"blood hematocrit (Hct), Day 4 (1 hour of tx)",rat model of DKA [1]; [6],38.80 ± 1.80%
same,"blood hematocrit (Hct), Day 4 (end of tx)",rat model of DKA [1]; [6],30.20 ± 3.12 %
same,"arterial blood pH, Day 4 (1 hour of tx)",rat model of DKA [1]; [7],6.80 ± 0.01
same,"arterial blood pH, Day 4 (end of tx)",rat model of DKA [1]; [7],6.81 ± 0.04
same,"plasma ET-1, Day 4 (pre tx)","rat model of DKA [2]; baseline before treatment, mean±SEM",11.76 ± 1.94 pg/mL
same,effect of treatment on plasma ET-1 level,"rat model of DKA [2]; day 4, result in words (Table 4, FIG. 9)",increased the plasma levels of ET-1
same,"plasma ET-1, Day 4 (end of tx)","rat model of DKA [2]; saline+insulin, alone or after bolus BMS-182874 9 mg/kg or BQ123 1 mg/kg, mean±SEM",22.17 ± 2.67 pg/mL
same,"blood glucose, Day 4 (pre-tx)","rat model of DKA [3]; baseline before treatment on day 4, mean±SEM",530 ± 20 mg/dL
same,effect of treatment on blood glucose,"rat model of DKA [3]; day 4, result in words",produced a significant decrease in blood glucose
same,"blood glucose, Day 4 (end of tx)","rat model of DKA [3]; saline+insulin infusion, alone or after bolus BMS-182874 9 mg/kg or BQ123 1 mg/kg, fifth hour, mean±SEM",200 ± 20 mg/dL
same,"blood glucose, Day 4 (1 hour of tx)","rat model of DKA [3]; saline+insulin infusion, alone or after bolus BMS-182874 9 mg/kg or BQ123 1 mg/kg, mean±SEM",444 ± 26 mg/dL
same,effect on cerebral blood perfusion,rat model of DKA [4],produced a marked (#P<0.05) increase in cerebral blood perfusion
